Measurements reported in patent publication US7256286B2, “Bryostatin analogues, synthetic methods and uses” (The Board of Trustees of the Leland Stanford Junior …, priority 1999, dated 2007).
Like-named read-outs stand apart in the source and are kept apart here.

Experiments:
[1] = target: T1, PKCδ-C1B (Mus musculus, UniProt P28867); experiment: PKCδ-C1B assay; assay type: binding
T1 construct: made in house
Protocol: Phosphatidyl serine vesicles are prepared by the addition of phosphatidyl serine (10 mg/mL in chloroform, 0.4 mL) to a glass test tube followed by removal of the chloroform under a stream of nitrogen (5 min). […] The resulting solution is stored over ice. […] Stock solutions of compounds are diluted with absolute ethanol in glass in serial fashion. […] The tubes are incubated at 37° C. for 90 min. and then put on ice for 5 min. Each tube is then filtered separately through a pre-soaked filter disc. […] The filter is subsequently rinsed with cold 20 mM TRIS buffer (5 mL) dropwise. […] The filters are immediately counted in a scintillation counter (Beckman LS 6000SC). Counts per minute are averaged among three trials at each concentration.

[2] = system: P388 cell line; experiment: P388 murine lymphocytic leukemia cell assay; assay type: cell-based; conditions: Mus musculus, P388, 120 h; 5 days incubation, MTT; read-out: P388 Assay ED50
Protocol: Cells from a P388 cell line (CellGate, Inc., Sunnyvale, Calif.) are grown in RPMI 1640 cell medium containing fetal calf serum (10%), L-glutamine, penicillin, streptomycin and are split twice weekly. All compounds are first diluted with DMSO. Later serial dilutions are done with a phosphate buffer solution (HYQ DPBS modified phosphate buffered saline). All dilutions are done in glass vials and the final DMSO concentration is always below 0.5% by volume. Final two-fold dilutions are done in a 96 well plate using cell media so that each well contains 50 μL. All compounds are assayed in quadruplicate over 12 concentrations. Cell concentration is measured using a hemacytometer and the final cell concentration is adjusted to 1×10^4 cells/mL with cell medium. The resulting solution of cells (50 μL) is then added to each well and the plates are incubated for 5 days in a 37° C., 5% CO2, humidified incubator (Sanyo CO2 incubator). MTT solution (3-[4,5-dimethylthiazol-2-yl]-2,5-diphenyltetrazolium bromide, 10 μL) is then added to each well and the plates are re-incubated under identical conditions for 2 h. To each well is then added acidified isopropanol (150 μL of i-PrOH solution containing 0.05 N HCl) and mixed thoroughly. The plates are then scanned at 595 nm and the absorbances are read (Wallac Victor 1420 Multilabel Counter). The resulting data is then analyzed to determine an ED50 value using the Prism software package (GraphPad).

[3] = target: PKC purified from rat brain (mixture of PKC isoenzymes); experiment: Protein kinase C (isozyme mix) assay; assay type: binding; conditions: determined under identical conditions to the PKC isozyme mix assay; read-out: Kd of [H^3]-PDBu
Protocol: In one approach, anticancer activity of compounds of the invention can be assessed using the protein kinase C assay detailed in Example 5. In this assay, Ki values are determined for analogues based on competition with radiolabeled phorbol 12,13-dibutyrate for binding to a mixture of PKC isoenzymes. PKC enzymes are implicated in a variety of cellular responses which may be involved in the activity of the bryostatins.
The following procedure was used, based on a modification of a previous procedure described by Tanaka et al. (1986). Filters (Whatman GF-B, 21 mm diam.) are soaked for 1 h in a solution containing deionized water (97 mL), and 10% polyethyleneamine (3 mL). A filtering buffer solution containing TRIS (1M, pH 7.4, 10 mL) and water (490 mL) is prepared and cooled on ice. […] Non-specific binding is measured in 1–3 tubes by the substitution of phorbol myristate acetate (PMA) (1 mM, 5 μL) and EtOH (15 μL) for the analogue/EtOH combination. […] The filters are immediately counted in a scintillation counter (Beckman LS 6000SC). […] The data is then plotted using a least squares fit algorithm with the Macintosh version of Kaleidagraph© (Abelbeck Software) and an IC50 (defined as the concentration of analogue required to displace half of the specific PDBU binding to PKC) is calculated. […]

T1 sequence (P28867 231-281 limits assumed): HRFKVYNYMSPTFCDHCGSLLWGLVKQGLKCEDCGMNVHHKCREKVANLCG

SMILES	Ki ([1]; competition with tritiated phorbol 12,13-dibutyrate, read-out: PKCδ-C1B Assay Ki) [nM]	EC50 [2] [nM]	Ki [1] [nM]	Kd ([1]; Kd value printed in the Ki column) [nM]	Kd [3] [nM]
COC(=O)/C=C1\C[C@H]2C[C@H]([C@@H](C)O)OC(=O)C[C@H](O)C[C@@H]3CCC[C@H](C[C@@H]4CCO[C@H](/C=C/C(C)(C)[C@](O)(O2)C1OC(C)=O)O4)O3 (stereo partly drawn) [Formula 702.2]	232 ± 11	181	–	–	–
CCCCCCCC(=O)O[C@H]1/C(=C/C(=O)OC)CC2C[C@H]([C@@H](C)O)OC(=O)C[C@H](O)C[C@@H]3CCC[C@H](C[C@@H]4CCO[C@H](/C=C/C(C)(C)[C@]1(O)O2)O4)O3 [Formula 1998a, reference compound]	–	76	5.1	–	–
CCCC(=O)O[C@@H]1[C@@H](C)[C@@]2(O)[C@@H](C=C(CO)C[C@]3(O)C(=O)C(C)=C[C@@H]23)[C@@H]2C(C)(C)[C@]12OC(=O)CCC [Phorbol dibutyrate, phorbol 12,13-dibutyrate, reference compound]	–	–	–	1.7	1.55
